In patent US11458189B2, “Cytoprotective drugs” (BALMES TRANSPLANTATION, priority 2017, dated 2022):
Starred links: 1 amine or outer side, 2 acyl side, 3 side chain; linkers in the order of their positions; H or OH if unused. Positions of bridges follow the written chain, without caps; N, C: chain ends. Non-standard residues stand in square brackets, D forms with d. Residues, ends and D or L forms follow the SMILES beside them. *: point of attachment. hTyr(3S-OH,4S-OH,3'-OSO3H) = N[C@H](C(=O)O)[C@H](O)[C@@H](O)c1ccc(O)c(OS(=O)(=O)O)c1; Orn(4R-OH,5R-OH) = O=C([C@H](C[C@@H](O)[C@@H](O)N[*:3])N[*:1])[*:2]; Pro(3S-OH,4S-Me) = C[C@H]1CN[C@H](C(=O)O)[C@H]1O; X1 = CCCCCOc1ccc(-c2cc(-c3ccc(C(=O)*)cc3)no2)cc1; Gln(3R-OH) = NC(=O)C[C@@H](O)[C@H](N)C(=O)O; Hyp = O=C(O)[C@@H]1C[C@@H](O)CN1

System: Human Renal Glomerular Endothelial Cells (HRGEC)
Assay: Oxygen and glucose deprivation followed by replenishment, cell survival (calcein AM), HRGEC
Assay type: cell-based
Procedure: Anidulafungin and micafungin were tested on Human Renal Glomerular Endothelial Cells (HRGEC, Innoprot P10665), on Human Renal Proximal Tubular Epithelial Cells (HRPTEpiC, Innoprot P10662), on Human Astrocytes (HA, caltag SC-1800), on Human Cardiac Microvascular Endothelial Cells (HCMEC, Caltag SC-6000), on Human Hepatic Sinusoidal Endothelial Cells (HHSEC, Caltag SC-5000), on Rat Primary Kidney Glomerular Endothelial cells (Cellbiologics, RN-6014G) and on Bovine Brain Microvascular Endothelial Cells (BBMEC, Caltag SC-B100).
In a first phase, these isolated, purified and cryopreserved cells are thawed and multiplied according to the supplier's recommendations in T75 or T175 flasks pre-coated with 2 μg of fibronectin/[…] (CORNING) for HRGEC, HCMEC, HHSEC and BBMEC, or 2 μg poly-L-lysin/cm^2 (Caltag SC-0403) for HRPTEpiC and HA, or 15 mL/flask 175 cm^2 gelatin-based solution (Cellbiologics) in the presence of endothelial cell supplemented growth medium ECM (P60104, INNOPROT, Caltag, SC-1001) for HRGEC, HCMEC, HHSEC, RPKGEC or BBMEC, or astrocyte cell supplemented growth medium AM (Caltag SC-1801) for HA or epithelial cell supplemented growth medium EpiCM (P60106, INNOPROT) for HRPTEpiC, at 37° C. under 5% CO2 and saturated humidity until their confluency. They are then harvested by trypsinization according to the method described by the supplier for exactly 5 minutes and then reseeded in new flasks a maximum of three times.
To carry out the oxygen and glucose deprivation test followed by their replenishment, the cells will be seeded in 96-well black plates with transparent flat bottom (GREINER). Once a sufficient number of cells has been obtained to allow seeding of 2000 to 15000 cells per well of 96-well plates depending on the cell type, the cells are seeded in these 96-well plates previously coated with an extracellular matrix as listed above for the flasks. The cells are cultured for 5 to 8 days according to the cell type, in the presence of the same growth medium as in the flask as described above except for HRGEC and HRPTEpiC for which DMEM (DUTSCHER) with 1 g/L of supplemented glucose is used, at 37° C. under 5% CO2 and saturated humidity to obtain confluency.
On the first day of oxygen and glucose deprivation, (5th, 6th, 7th or 8th day of culture), the culture conditions are drastically changed. The medium of all plates is removed and replaced by DMEM (DUTSCHER) medium without glucose and supplemented only with 1% penicillin-streptomycin (DUTSCHER). Anidulafungin or micafungin dissolved in dimethyl sulfoxide (DMSO) is then added to each well at the desired concentration, resulting in a maximum of 1% DMSO, and the plates are placed under hypoxia at <1% 02 and 5% CO2 at 37° C. for 24 hours of culture. Each compound was tested in a concentration range.
After 24 hours, the growth medium is changed and replaced by a richer medium, DMEM (DUTSCHER) at 1 g/L glucose and 2% FBS (INNOPROT) and 1% penicillin-streptomycin (DUTSCHER). These media will have been pre-equilibrated at 37° C. in advance. The cells are then returned to culture at 37° C. under 20% 02 and 5% CO2 for 22h.
After 22 hours of reoxygenation, the potential protective effect of anidulafungin or micafungin is measured by a cell viability test using calcein AM (CORNING), which is a dye substrate. The calcein AM can easily cross the cell membrane of the viable cells. The AM ester groups mask the part of the molecule that chelates calcium. Once inside the cells, the (non-fluorescent) calcein AM is hydrolyzed to (fluorescent) calcein by endogenous esterases. The resulting calcein molecule binds to calcium inside the cell and remains trapped inside the cell. These molecules emit strong green fluorescence when subjected to […] of a particular wavelength (495 nm). Since dead cells lack esterase activity, only living cells are labelled.
This cell viability test is performed in two steps. […]

Compound: CCCCCOc1ccc(-c2cc(-c3ccc(C(=O)N[C@H]4C[C@@H](O)[C@@H](O)NC(=O)[C@@H]5[C@@H](O)[C@@H](C)CN5C(=O)[C@H]([C@H](O)CC(N)=O)NC(=O)[C@H]([C@H](O)[C@@H](O)c5ccc(O)c(OS(=O)(=O)O)c5)NC(=O)[C@@H]5C[C@@H](O)CN5C(=O)[C@H]([C@@H](C)O)NC4=O)cc3)no2)cc1 [Micafungin, {5-[(1S,2S)-2-[(3S,6S,9S,11R,15S,18S,20R,21R,24S,25S,26S)-3-[(1R)-2-carbamoyl-1-hydroxyethyl]-11,20,21,25-tetrahydroxy-15-[(1R)-1-hydroxyethyl]-26-methyl-2,5,8,14,17,23-hexaoxo-18-[(4-{5-[4-(pentyloxy)phenyl]-1,2-oxazol-3-yl}benzene)amido]-1,4,7,13,16,22-hexaazatricyclo[22.3.0.0]heptacosan-6-yl]-1,2-dihydroxyethyl]-2-hydroxyphenyl}oxidanesulfonic acid] (X1-[Orn(4R-OH,5R-OH)]T[Hyp][hTyr(3S-OH,4S-OH,3'-OSO3H)][Gln(3R-OH)][Pro(3S-OH,4S-Me)]; lactam 1-C)
- Globalfluo assay 1 ([Micafungin] log μM −4): 11181240 arbitrary units
- Globalfluo assay 2 ([Micafungin] log μM −4): 11805530 arbitrary units
- Globalfluo assay 3 ([Micafungin] log μM −4): 11095570 arbitrary units
- Mean globalfluo ([Micafungin] log μM −4): 11360780 arbitrary units
- Survival rate (%) ([Micafungin] log μM −4): 37%
- Globalfluo assay 1 ([Micafungin] log μM −4.124939): 12113050 arbitrary units
- Globalfluo assay 2 ([Micafungin] log μM −4.124939): 11168770 arbitrary units
- Globalfluo assay 3 ([Micafungin] log μM −4.124939): 11691720 arbitrary units
- Mean globalfluo ([Micafungin] log μM −4.124939): 11657847 arbitrary units
- Survival rate (%) ([Micafungin] log μM −4.124939): 38%
- Globalfluo assay 1 ([Micafungin] log μM −4.30103): 10705920 arbitrary units
- Globalfluo assay 2 ([Micafungin] log μM −4.30103): 12585990 arbitrary units
- Globalfluo assay 3 ([Micafungin] log μM −4.30103): 12661760 arbitrary units
- Mean globalfluo ([Micafungin] log μM −4.30103): 11984557 arbitrary units
- Survival rate (%) ([Micafungin] log μM −4.30103): 40%
- Globalfluo assay 1 ([Micafungin] log μM −4.39794): 12034270 arbitrary units
- Globalfluo assay 2 ([Micafungin] log μM −4.39794): 11904770 arbitrary units
- Globalfluo assay 3 ([Micafungin] log μM −4.39794): 11704580 arbitrary units
- Mean globalfluo ([Micafungin] log μM −4.39794): 11881207 arbitrary units
- Survival rate (%) ([Micafungin] log μM −4.39794): 39%
- Globalfluo assay 1 ([Micafungin] log μM −4.522879): 9416001 arbitrary units
- Globalfluo assay 2 ([Micafungin] log μM −4.522879): 11987430 arbitrary units
- Globalfluo assay 3 ([Micafungin] log μM −4.522879): 10070420 arbitrary units
- Mean globalfluo ([Micafungin] log μM −4.522879): 10491284 arbitrary units
- Survival rate (%) ([Micafungin] log μM −4.522879): 34%
- Globalfluo assay 1 ([Micafungin] log μM −4.60206): 10458840 arbitrary units
- Globalfluo assay 2 ([Micafungin] log μM −4.60206): 10594720 arbitrary units
- Globalfluo assay 3 ([Micafungin] log μM −4.60206): 8636463 arbitrary units
- Mean globalfluo ([Micafungin] log μM −4.60206): 9896674 arbitrary units
- Survival rate (%) ([Micafungin] log μM −4.60206): 31%
- Globalfluo assay 1 ([Micafungin] log μM −4.69897): 8790971 arbitrary units
- Globalfluo assay 2 ([Micafungin] log μM −4.69897): 10993750 arbitrary units
- Globalfluo assay 3 ([Micafungin] log μM −4.69897): 9050581 arbitrary units
- Mean globalfluo ([Micafungin] log μM −4.69897): 9611767 arbitrary units
- Survival rate (%) ([Micafungin] log μM −4.69897): 30%
- Globalfluo assay 1 ([Micafungin] log μM −4.823909): 9039973 arbitrary units
- Globalfluo assay 2 ([Micafungin] log μM −4.823909): 8208392 arbitrary units
- Globalfluo assay 3 ([Micafungin] log μM −4.823909): 7686254 arbitrary units
- Mean globalfluo ([Micafungin] log μM −4.823909): 8311540 arbitrary units
- Survival rate (%) ([Micafungin] log μM −4.823909): 25%
- Globalfluo assay 1 ([Micafungin] log μM −5): 5367938 arbitrary units
- Globalfluo assay 2 ([Micafungin] log μM −5): 7594623 arbitrary units
- Globalfluo assay 3 ([Micafungin] log μM −5): 5742300 arbitrary units
- Mean globalfluo ([Micafungin] log μM −5): 6234954 arbitrary units
- Survival rate (%) ([Micafungin] log μM −5): 16%
- Globalfluo assay 1 ([Micafungin] log μM −5.09691): 5198634 arbitrary units
- Globalfluo assay 2 ([Micafungin] log μM −5.09691): 5680528 arbitrary units
- Globalfluo assay 3 ([Micafungin] log μM −5.09691): 4518691 arbitrary units
- Mean globalfluo ([Micafungin] log μM −5.09691): 5132618 arbitrary units
- Survival rate (%) ([Micafungin] log μM −5.09691): 11%
- Globalfluo assay 1 ([Micafungin] log μM −5.221849): 5545222 arbitrary units
- Globalfluo assay 2 ([Micafungin] log μM −5.221849): 4844574 arbitrary units
- Globalfluo assay 3 ([Micafungin] log μM −5.221849): 4333143 arbitrary units
- Mean globalfluo ([Micafungin] log μM −5.221849): 4907646 arbitrary units
- Survival rate (%) ([Micafungin] log μM −5.221849): 10%
- Globalfluo assay 1 ([Micafungin] log μM −5.39794): 3889914 arbitrary units
- Globalfluo assay 2 ([Micafungin] log μM −5.39794): 3964004 arbitrary units
- Globalfluo assay 3 ([Micafungin] log μM −5.39794): 4064339 arbitrary units
- Mean globalfluo ([Micafungin] log μM −5.39794): 3972752 arbitrary units
- Survival rate (%) ([Micafungin] log μM −5.39794): 7%
- Globalfluo assay 1 ([Micafungin] log μM −5.69897): 3399775 arbitrary units
- Globalfluo assay 2 ([Micafungin] log μM −5.69897): 3118863 arbitrary units
- Globalfluo assay 3 ([Micafungin] log μM −5.69897): 3166056 arbitrary units
- Mean globalfluo ([Micafungin] log μM −5.69897): 3228231 arbitrary units
- Survival rate (%) ([Micafungin] log μM −5.69897): 4%
- Globalfluo assay 1 ([Micafungin] log μM −6): 3157528 arbitrary units
- Globalfluo assay 2 ([Micafungin] log μM −6): 2851345 arbitrary units
- Globalfluo assay 3 ([Micafungin] log μM −6): 2667237 arbitrary units
- Mean globalfluo ([Micafungin] log μM −6): 2892037 arbitrary units
- Survival rate (%) ([Micafungin] log μM −6): 2%
- Globalfluo assay 1 ([Micafungin] log μM −6.30103): 2192241 arbitrary units
- Globalfluo assay 2 ([Micafungin] log μM −6.30103): 2496288 arbitrary units
- Globalfluo assay 3 ([Micafungin] log μM −6.30103): 2306718 arbitrary units
- Mean globalfluo ([Micafungin] log μM −6.30103): 2331749 arbitrary units
- Survival rate (%) ([Micafungin] log μM −6.30103): 0%
- Globalfluo assay 1 ([Micafungin] log μM −7): 2276775 arbitrary units
- Globalfluo assay 2 ([Micafungin] log μM −7): 2276419 arbitrary units
- Globalfluo assay 3 ([Micafungin] log μM −7): 1622516 arbitrary units
- Mean globalfluo ([Micafungin] log μM −7): 2058570 arbitrary units
- Survival rate (%) ([Micafungin] log μM −7): −1%
